Experimental data as given in ChEMBL document CHEMBL4507315 (2021).

Columns and labels:
[1] = target: Mast/stem cell growth factor receptor Kit (Homo sapiens) (UniProt P10721); conditions: Compound concentration 100.0 nM
[2] = target: Tyrosine-protein kinase Fgr (Homo sapiens) (UniProt P09769); conditions: Compound concentration 100.0 nM
[3] = target: Focal adhesion kinase 1 (Homo sapiens) (UniProt Q05397); conditions: Compound concentration 100.0 nM
[4] = target: Inhibitor of nuclear factor kappa-B kinase subunit beta (Homo sapiens) (UniProt O14920); conditions: Compound concentration 100.0 nM
[5] = target: Leukocyte tyrosine kinase receptor (Homo sapiens) (UniProt P29376); conditions: Compound concentration 100.0 nM
[6] = target: Proto-oncogene tyrosine-protein kinase Src (Homo sapiens) (UniProt P12931); conditions: Compound concentration 100.0 nM
[7] = target: Bone morphogenetic protein receptor type-1A (Homo sapiens) (UniProt P36894); conditions: Compound concentration 100.0 nM
[8] = target: Phosphorylase b kinase regulatory subunit alpha, liver isoform (Homo sapiens) (UniProt P46019); conditions: Compound concentration 100.0 nM
[9] = target: Mitogen-activated protein kinase 9 (Homo sapiens) (UniProt P45984); conditions: Compound concentration 100.0 nM
[10] = target: Dual serine/threonine and tyrosine protein kinase (Homo sapiens) (UniProt Q6XUX3); conditions: Compound concentration 100.0 nM
[11] = target: Protein kinase C iota type (Homo sapiens) (UniProt P41743); conditions: Compound concentration 100.0 nM
[12] = target: Serine/threonine-protein kinase PAK 5 (Homo sapiens) (UniProt Q9P286); conditions: Compound concentration 100.0 nM
[13] = target: Serine/threonine-protein kinase 24 (Homo sapiens) (UniProt Q9Y6E0); conditions: Compound concentration 100.0 nM
[14] = target: Dual specificity mitogen-activated protein kinase kinase 2 (Homo sapiens) (UniProt P36507); conditions: Compound concentration 100.0 nM
[15] = target: cAMP-dependent protein kinase catalytic subunit beta (Homo sapiens) (UniProt P22694); conditions: Compound concentration 100.0 nM
[16] = system: Proto-oncogene tyrosine-protein kinase receptor Ret (Homo sapiens), P07949 [V804L]; conditions: Compound concentration 100.0 nM
[17] = target: Ribosomal protein S6 kinase alpha-1 (Homo sapiens) (UniProt Q15418); conditions: Compound concentration 100.0 nM
Sequence of Ribosomal protein S6 kinase alpha-1 (Homo sapiens) (Q15418 whole entry): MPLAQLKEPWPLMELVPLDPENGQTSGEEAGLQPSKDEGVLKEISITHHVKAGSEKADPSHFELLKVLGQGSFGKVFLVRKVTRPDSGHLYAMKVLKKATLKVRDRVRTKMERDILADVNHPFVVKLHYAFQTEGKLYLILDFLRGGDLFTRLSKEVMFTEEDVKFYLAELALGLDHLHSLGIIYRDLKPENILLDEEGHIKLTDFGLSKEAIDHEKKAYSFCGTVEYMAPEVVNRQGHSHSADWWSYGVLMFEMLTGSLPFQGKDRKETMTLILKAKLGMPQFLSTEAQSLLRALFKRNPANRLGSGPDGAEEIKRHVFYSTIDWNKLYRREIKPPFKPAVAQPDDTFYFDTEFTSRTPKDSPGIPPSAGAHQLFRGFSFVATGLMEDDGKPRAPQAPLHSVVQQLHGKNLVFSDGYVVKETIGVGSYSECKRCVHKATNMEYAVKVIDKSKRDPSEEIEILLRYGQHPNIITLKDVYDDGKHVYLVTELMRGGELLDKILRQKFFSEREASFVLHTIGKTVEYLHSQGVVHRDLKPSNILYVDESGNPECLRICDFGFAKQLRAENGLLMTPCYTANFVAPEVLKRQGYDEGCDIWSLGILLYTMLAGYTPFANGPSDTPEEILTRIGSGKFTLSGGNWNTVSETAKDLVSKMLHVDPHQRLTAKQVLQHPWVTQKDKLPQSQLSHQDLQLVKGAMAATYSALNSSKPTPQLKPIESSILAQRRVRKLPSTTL

[18] = target: Sodium-dependent serotonin transporter (Homo sapiens) (UniProt P31645); conditions: Compound concentration 10.0 uM
[19] = target: Serine/threonine-protein kinase tousled-like 2 (Homo sapiens) (UniProt Q86UE8); conditions: Compound concentration 100.0 nM
Sequence of Serine/threonine-protein kinase tousled-like 2 (Homo sapiens) (Q86UE8 whole entry, looked up): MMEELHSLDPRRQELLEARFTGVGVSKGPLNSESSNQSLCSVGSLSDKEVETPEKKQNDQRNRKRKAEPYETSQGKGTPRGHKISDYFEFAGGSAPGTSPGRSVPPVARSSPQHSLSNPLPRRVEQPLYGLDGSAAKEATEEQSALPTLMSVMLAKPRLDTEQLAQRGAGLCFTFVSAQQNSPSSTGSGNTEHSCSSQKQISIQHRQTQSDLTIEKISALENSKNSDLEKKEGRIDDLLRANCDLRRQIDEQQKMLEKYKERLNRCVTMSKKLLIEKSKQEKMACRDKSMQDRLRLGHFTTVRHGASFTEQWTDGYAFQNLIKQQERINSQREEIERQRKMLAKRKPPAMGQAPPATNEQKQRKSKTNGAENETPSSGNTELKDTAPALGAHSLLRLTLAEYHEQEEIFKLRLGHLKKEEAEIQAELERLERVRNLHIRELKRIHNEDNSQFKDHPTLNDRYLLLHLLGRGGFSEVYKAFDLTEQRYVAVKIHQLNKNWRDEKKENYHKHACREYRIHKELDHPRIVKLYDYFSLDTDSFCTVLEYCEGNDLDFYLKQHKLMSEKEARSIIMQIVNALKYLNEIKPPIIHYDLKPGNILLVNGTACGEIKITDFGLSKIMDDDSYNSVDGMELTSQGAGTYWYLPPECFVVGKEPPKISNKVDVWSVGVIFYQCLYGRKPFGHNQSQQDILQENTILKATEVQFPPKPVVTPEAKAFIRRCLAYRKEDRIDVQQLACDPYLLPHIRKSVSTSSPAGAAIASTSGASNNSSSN

[20] = target: Non-receptor tyrosine-protein kinase TYK2 (Homo sapiens) (UniProt P29597); conditions: Compound concentration 100.0 nM
[21] = target: D(3) dopamine receptor (Homo sapiens) (UniProt P35462); conditions: Compound concentration 10.0 uM
Sequence of D(3) dopamine receptor (Homo sapiens) (P35462 whole entry): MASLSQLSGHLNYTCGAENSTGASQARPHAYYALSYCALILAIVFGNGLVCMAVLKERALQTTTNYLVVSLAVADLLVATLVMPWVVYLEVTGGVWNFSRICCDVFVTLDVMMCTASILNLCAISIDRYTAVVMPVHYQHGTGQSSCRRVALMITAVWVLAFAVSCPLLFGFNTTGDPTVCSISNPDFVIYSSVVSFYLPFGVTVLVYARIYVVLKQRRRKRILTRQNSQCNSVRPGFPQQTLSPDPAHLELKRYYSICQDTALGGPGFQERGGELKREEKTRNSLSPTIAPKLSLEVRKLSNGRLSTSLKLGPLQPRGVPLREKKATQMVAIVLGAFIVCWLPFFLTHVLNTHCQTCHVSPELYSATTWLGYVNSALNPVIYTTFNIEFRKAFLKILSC

[22] = target: Proto-oncogene tyrosine-protein kinase receptor Ret (Homo sapiens) (UniProt P07949); conditions: Compound concentration 100.0 nM
[23] = target: Muscle, skeletal receptor tyrosine-protein kinase (Homo sapiens) (UniProt O15146); conditions: Compound concentration 100.0 nM
[24] = target: NUAK family SNF1-like kinase 2 (Homo sapiens) (UniProt Q9H093); conditions: Compound concentration 100.0 nM
[25] = target: Activin receptor type-2A (Homo sapiens) (UniProt P27037); conditions: Compound concentration 100.0 nM
[26] = target: Serine/threonine-protein kinase TNNI3K (Homo sapiens) (UniProt Q59H18); conditions: Compound concentration 100.0 nM
[27] = target: Mitogen-activated protein kinase kinase kinase 9 (Homo sapiens) (UniProt P80192); conditions: Compound concentration 100.0 nM
[28] = target: Serine/threonine-protein kinase ULK1 (Homo sapiens) (UniProt O75385); conditions: Compound concentration 100.0 nM
Sequence of Serine/threonine-protein kinase ULK1 (Homo sapiens) (O75385 whole entry): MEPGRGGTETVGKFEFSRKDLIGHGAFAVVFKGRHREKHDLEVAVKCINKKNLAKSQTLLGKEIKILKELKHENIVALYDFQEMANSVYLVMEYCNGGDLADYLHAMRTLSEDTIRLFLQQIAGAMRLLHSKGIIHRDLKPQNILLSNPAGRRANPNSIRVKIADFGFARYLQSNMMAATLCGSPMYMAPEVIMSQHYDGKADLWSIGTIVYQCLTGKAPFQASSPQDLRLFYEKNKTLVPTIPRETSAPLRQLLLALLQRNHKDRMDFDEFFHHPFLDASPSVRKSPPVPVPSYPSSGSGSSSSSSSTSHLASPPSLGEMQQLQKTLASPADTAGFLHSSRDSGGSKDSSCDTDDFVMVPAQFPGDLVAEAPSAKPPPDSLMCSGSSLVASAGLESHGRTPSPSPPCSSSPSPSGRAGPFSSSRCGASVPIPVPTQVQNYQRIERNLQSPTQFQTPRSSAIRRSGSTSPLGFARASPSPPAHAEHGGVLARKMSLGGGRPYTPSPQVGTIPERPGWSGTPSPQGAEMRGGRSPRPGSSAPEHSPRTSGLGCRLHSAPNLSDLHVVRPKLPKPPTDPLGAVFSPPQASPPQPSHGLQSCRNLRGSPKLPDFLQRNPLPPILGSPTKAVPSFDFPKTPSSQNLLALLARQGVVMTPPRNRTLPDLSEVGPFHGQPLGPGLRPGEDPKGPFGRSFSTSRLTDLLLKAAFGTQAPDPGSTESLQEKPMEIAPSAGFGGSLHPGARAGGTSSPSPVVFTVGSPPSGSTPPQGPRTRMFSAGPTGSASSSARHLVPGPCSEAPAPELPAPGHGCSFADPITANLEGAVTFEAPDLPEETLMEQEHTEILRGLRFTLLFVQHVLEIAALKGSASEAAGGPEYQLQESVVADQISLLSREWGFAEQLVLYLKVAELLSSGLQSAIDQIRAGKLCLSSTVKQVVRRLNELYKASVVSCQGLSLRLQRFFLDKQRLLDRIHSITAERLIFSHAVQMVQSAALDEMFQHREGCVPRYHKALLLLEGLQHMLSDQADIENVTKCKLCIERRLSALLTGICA

[29] = target: Protein kinase C delta type (Homo sapiens) (UniProt Q05655); conditions: Compound concentration 100.0 nM
[30] = target: Casein kinase I isoform alpha (Homo sapiens) (UniProt P48729); conditions: Compound concentration 100.0 nM
[31] = target: Platelet-derived growth factor receptor beta (Homo sapiens) (UniProt P09619); conditions: Compound concentration 100.0 nM
[32] = target: Citron Rho-interacting kinase (Homo sapiens) (UniProt O14578); conditions: Compound concentration 100.0 nM
[33] = target: Serine/threonine-protein kinase PAK 2 (Homo sapiens) (UniProt Q13177); conditions: Compound concentration 100.0 nM
[34] = target: Mitogen-activated protein kinase 15 (Homo sapiens) (UniProt Q8TD08); conditions: Compound concentration 100.0 nM
Sequence of Mitogen-activated protein kinase 15 (Homo sapiens) (Q8TD08 whole entry): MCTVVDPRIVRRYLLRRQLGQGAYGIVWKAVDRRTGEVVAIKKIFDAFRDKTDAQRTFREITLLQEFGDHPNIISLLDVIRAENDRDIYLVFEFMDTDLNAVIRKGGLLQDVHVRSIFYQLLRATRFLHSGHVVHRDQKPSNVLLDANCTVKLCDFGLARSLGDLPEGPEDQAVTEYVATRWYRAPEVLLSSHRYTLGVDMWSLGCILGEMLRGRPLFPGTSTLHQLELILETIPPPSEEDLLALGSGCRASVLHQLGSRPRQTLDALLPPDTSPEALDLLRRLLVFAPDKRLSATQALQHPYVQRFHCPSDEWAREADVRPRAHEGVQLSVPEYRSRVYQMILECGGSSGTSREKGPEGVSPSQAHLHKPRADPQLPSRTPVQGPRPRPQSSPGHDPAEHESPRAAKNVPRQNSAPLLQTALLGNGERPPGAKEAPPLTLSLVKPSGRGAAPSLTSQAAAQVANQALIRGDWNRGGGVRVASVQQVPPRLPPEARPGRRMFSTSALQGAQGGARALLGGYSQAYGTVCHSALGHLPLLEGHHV

[35] = target: Dual specificity mitogen-activated protein kinase kinase 4 (Homo sapiens) (UniProt P45985); conditions: Compound concentration 100.0 nM
[36] = target: SRSF protein kinase 3 (Homo sapiens) (UniProt Q9UPE1); conditions: Compound concentration 100.0 nM
Sequence of SRSF protein kinase 3 (Homo sapiens) (Q9UPE1 whole entry): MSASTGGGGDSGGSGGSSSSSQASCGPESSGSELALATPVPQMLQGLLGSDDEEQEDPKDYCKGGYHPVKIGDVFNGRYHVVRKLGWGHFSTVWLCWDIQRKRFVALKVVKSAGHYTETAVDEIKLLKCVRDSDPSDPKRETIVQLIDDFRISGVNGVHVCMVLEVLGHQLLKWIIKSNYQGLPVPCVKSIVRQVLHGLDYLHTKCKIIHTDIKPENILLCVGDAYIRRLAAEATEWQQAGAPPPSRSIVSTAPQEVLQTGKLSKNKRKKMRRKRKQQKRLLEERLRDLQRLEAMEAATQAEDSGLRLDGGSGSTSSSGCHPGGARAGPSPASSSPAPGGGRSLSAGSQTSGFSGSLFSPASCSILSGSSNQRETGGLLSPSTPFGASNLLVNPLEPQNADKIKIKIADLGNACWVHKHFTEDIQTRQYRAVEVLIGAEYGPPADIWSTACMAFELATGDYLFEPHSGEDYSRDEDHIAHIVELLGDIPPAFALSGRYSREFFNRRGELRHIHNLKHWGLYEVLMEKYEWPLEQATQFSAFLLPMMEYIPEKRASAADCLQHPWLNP

[37] = target: Activin receptor type-1-like (Homo sapiens) (UniProt P37023); conditions: Compound concentration 100.0 nM
[38] = target: Mitogen-activated protein kinase kinase kinase kinase 4 (Homo sapiens) (UniProt O95819); conditions: Compound concentration 100.0 nM
[39] = target: Serine/threonine-protein kinase D3 (Homo sapiens) (UniProt O94806); conditions: Compound concentration 100.0 nM
[40] = system: Receptor-type tyrosine-protein kinase FLT3 (Homo sapiens), P36888 [D835V]; conditions: Compound concentration 100.0 nM
[41] = target: Uncharacterized serine/threonine-protein kinase SBK3 (Homo sapiens) (UniProt P0C264); conditions: Compound concentration 100.0 nM
[42] = target: GABA-A receptor; anion channel (Rattus norvegicus) (UniProt O09028+P15431+P18506+P18508+P19969+P20236+P23574+P23576+P28471+P28473+P30191+P62813+P63079+P63138+Q91ZM7+Q9ES14); conditions: Compound concentration 10.0 uM
[43] = system: Hepatocyte growth factor receptor (Homo sapiens), P08581 [Y1235D]; conditions: Compound concentration 100.0 nM
[44] = target: Tyrosine-protein kinase Fes/Fps (Homo sapiens) (UniProt P07332); conditions: Compound concentration 100.0 nM

Sequence of Mast/stem cell growth factor receptor Kit (Homo sapiens) (P10721 whole entry): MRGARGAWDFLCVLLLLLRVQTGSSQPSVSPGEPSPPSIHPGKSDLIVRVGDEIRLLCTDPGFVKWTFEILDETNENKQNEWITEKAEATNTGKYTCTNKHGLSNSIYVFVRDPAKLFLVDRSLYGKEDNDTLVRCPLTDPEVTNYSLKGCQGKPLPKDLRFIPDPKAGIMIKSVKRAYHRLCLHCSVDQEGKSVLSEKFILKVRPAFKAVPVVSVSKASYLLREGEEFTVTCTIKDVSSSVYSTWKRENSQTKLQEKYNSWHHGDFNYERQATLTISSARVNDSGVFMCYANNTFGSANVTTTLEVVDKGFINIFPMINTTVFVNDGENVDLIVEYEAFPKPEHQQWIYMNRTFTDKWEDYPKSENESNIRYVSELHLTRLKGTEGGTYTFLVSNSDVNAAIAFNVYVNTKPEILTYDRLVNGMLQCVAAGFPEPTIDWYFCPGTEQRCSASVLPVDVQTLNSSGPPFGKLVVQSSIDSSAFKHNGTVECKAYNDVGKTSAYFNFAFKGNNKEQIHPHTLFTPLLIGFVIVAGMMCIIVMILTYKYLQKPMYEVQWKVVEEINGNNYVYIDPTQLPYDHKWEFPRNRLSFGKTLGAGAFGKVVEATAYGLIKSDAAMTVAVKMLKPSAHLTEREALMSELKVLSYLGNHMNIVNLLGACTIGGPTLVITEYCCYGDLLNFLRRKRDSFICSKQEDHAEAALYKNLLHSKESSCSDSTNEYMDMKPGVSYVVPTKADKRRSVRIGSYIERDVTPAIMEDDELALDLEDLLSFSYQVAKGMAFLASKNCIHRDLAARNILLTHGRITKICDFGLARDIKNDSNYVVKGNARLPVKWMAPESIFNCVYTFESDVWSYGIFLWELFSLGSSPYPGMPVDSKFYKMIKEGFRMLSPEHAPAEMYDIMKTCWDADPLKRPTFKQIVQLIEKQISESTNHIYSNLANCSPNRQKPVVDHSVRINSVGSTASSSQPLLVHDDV

Nc1c(C(=O)NCc2ccc(C(=O)NCCCC3CCCCC3)cc2)cnn1-c1ccccc1 [SR-318]
inactive: residual activity [1] 100% | residual activity [2] 100% | residual activity [3] 99% | residual activity [4] 100% | residual activity [5] 100% | residual activity [6] 100% | residual activity [7] 100% | residual activity [8] 100% | residual activity [9] 100% | residual activity [10] 100% | residual activity [11] 97% | residual activity [12] 100% | residual activity [13] 91% | residual activity [14] 100% | residual activity [15] 82% | residual activity [16] 100% | residual activity [17] 92% | inhibition [18] 7.75% | residual activity [19] 100% | residual activity [20] 88% | inhibition [21] 21.2% | residual activity [22] 89% | residual activity [23] 97% | residual activity [24] 100% | residual activity [25] 100% | residual activity [26] 100% | residual activity [27] 96% | residual activity [28] 100% | residual activity [29] 88% | residual activity [30] 100% | residual activity [31] 100% | residual activity [32] 100% | residual activity [33] 66% | residual activity [34] 100% | residual activity [35] 100% | residual activity [36] 100% | residual activity [37] 100% | residual activity [38] 87% | residual activity [39] 92% | residual activity [40] 100% | residual activity [41] 87% | inhibition [42] 13.3% | residual activity [43] 94% | residual activity [44] 100%

O=C(NCCCC1CCCCC1)c1ccc(CNC(=O)c2cnn(-c3ccccc3)c2C(F)(F)F)cc1 [SR-321]
inactive: residual activity [1] 100% | residual activity [2] 95% | residual activity [3] 100% | residual activity [4] 100% | residual activity [5] 100% | residual activity [6] 100% | residual activity [7] 100% | residual activity [8] 100% | residual activity [9] 85% | residual activity [10] 100% | residual activity [11] 100% | residual activity [12] 100% | residual activity [13] 100% | residual activity [14] 93% | residual activity [15] 100% | residual activity [16] 100% | residual activity [17] 100% | inhibition [18] 0.18% | residual activity [19] 100% | residual activity [20] 100% | inhibition [21] 2.65% | residual activity [22] 89% | residual activity [23] 100% | residual activity [24] 100% | residual activity [25] 83% | residual activity [26] 79% | residual activity [27] 100% | residual activity [28] 100% | residual activity [29] 100% | residual activity [30] 99% | residual activity [31] 100% | residual activity [32] 86% | residual activity [33] 100% | residual activity [34] 100% | residual activity [35] 100% | residual activity [36] 100% | residual activity [37] 100% | residual activity [38] 81% | residual activity [39] 99% | residual activity [40] 88% | residual activity [41] 100% | inhibition [42] 14% | residual activity [43] 100% | residual activity [44] 100%
